Reference: patent US20250319117A1, “METHODS AND COMPOSITIONS FOR TREATING FIBROSIS” (THE UNIVERSITY OF CHICAGO, priority 2021, published 2025)

Key:
[1] = test system: mouse monocyte-derived myofibroblasts; assay: Flow cytometry of mouse monocyte-derived myofibroblasts treated with siRNA; assay type: cell-based; details: 50 nM siRNA mixtures or individual siRNAs (FIG. 27D)
Protocol: (§1) Human and mouse monocytes were cultured as previously described, using serum-free media (SFM). Briefly, SFM for human cells is composed of fibrolife (Lifeline, Frederick, MD), with 1× ITS-3 (Sigma, St. Louis, MO), 1× HEPES buffer (Sigma), 1× non-essential amino acids (Sigma), 1× sodium pyruvate (Sigma), and penicillin-streptomycin with glutamate (Sigma). For mice, 2× concentrations of ITS-3, HEPES buffer, non-essential amino acids, and sodium pyruvate are added. For mouse monocytes, 50 mM beta-mercaptoenthanol (ThermoFisher) was also added, as were pro-fibrotic supplements M-CSF (25 ng/ml, Peprotech, Rocky Hill, NJ) and IL-13 (50 ng/ml). Additionally, M-CSF and IL-13 were refreshed in the media of mouse monocytes after 3 days of culture.
Accell Silencing RNA (siRNA, Dharmacon, Lafayette, CO) is specifically engineered to penetrate cells without the use of transfection reagents, due to a cholesterol modification at one terminus of the sequence. […] Thus, Accell siRNA targets all cells in a population, not just those that are replicating. […] Lastly, Accell siRNA contains a modification that inhibits enzymatic digestion within cells. Thus, Accell siRNA made a natural choice for this experiment, and all siRNAs used in this study are Accell siRNA. siRNA was resuspended in RNAse-free ultrapure water, as per the manufacturer's instructions. […]

[2] = test system: mouse fibroblast-derived myofibroblasts; assay: Flow cytometry of mouse fibroblast-derived myofibroblasts treated with siRNA; assay type: cell-based; details: 50 nM siRNA
Protocol: Human fibroblasts (MRC-5, ATCC, Manassas, VA) and mouse fibroblasts (NIH-3T3, ATCC) were cultured in SFM composed for human cells, with 1× concentrations of additives. TGF-b (Peprotech) was added to induce myofibroblast formation at 5 ng/ml. Cells were cultured at 10,000/cm^2, and TGF-β was refreshed in cultures weekly to maintain the myofibroblast phenotype.
The SMARTpool of siRNA targeting human talin2 contained four target sequences, while the anti-parallel corresponding siRNA sequences actually silenced the mRNA. Target sequences: #1 (CCAGAAAACUGAACGAUUA) (SEQ ID NO:29), #2 (GCCCUGUCCUUAAAGAUUU) (SEQ ID NO:30), #3 (CGACUGUGGUUAAAUACUC) (SEQ ID NO:31), and #4 (CGAGAAAGCUUGUGAGUUU) (SEQ ID NO:32). SMARTpool targeting mouse talin2 also contained four target sequences: #1 […], #2 (CUGGAAAAUUCAGUGAUGA) (SEQ ID NO:26), #3 (CCCUGGAUUUUGAAGAACA) (SEQ ID NO:27), and #4 (CCAUCGAGUACAUAAAACA) (SEQ ID NO:28). Control non-targeting SMARTpools contained 4 target sequences, including: #1 (CCAGAAAACUGAACGAUUA) (SEQ ID NO:29), #2 (GCCCUGUCCUUAAAGAUUU) (SEQ ID NO:30), #3 (CGACUGUGGUUAAAUACUC) (SEQ ID NO:31), and #4 (CGAGAAAGCUUGUGAGUUU) (SEQ ID NO:32). Individual siRNA tested in mice was talin2 siRNA #2, target: 5′ CUGGAAAAUUCAGUGAUGA 3′ (SEQ ID NO:26), anti-sense: 5′ UCAUCACUGAAUUUUCCAG 3′ (SEQ ID NO:37). […]

[3] = test system: bleomycin insult to mouse lungs; assay: Bleomycin lung fibrosis model, lung instillation of talin2 siRNA; assay type: in vivo
[4] = test system: fibrosis; details: literature [4], [6]; cited from earlier work
[5] = test system: talin1 and talin2; details: literature [83]; cited from earlier work
[6] = test system: human monocyte-myofibroblast differentiation; assay: Human monocyte-myofibroblast de-differentiation assessed by morphology; assay type: cell-based; details: added to culture of human monocyte-myofibroblasts (FIG. 1A, 1B)
Protocol: Monocytes were purified from PBMCs by use of a negative selection kit for human monocytes (Stemcell, Cambridge, MA), per the manufacturer's instructions. Approximately 20 million monocytes were purified from each filter. Monocytes were then washed by PBS using five successive 300×G centrifugation steps, in order to remove EDTA from the resulting population. Monocytes were checked for purity using flow cytometry, and average purity was above 95%. Monocytes were cultured immediately following purification, at 100,000 monocytes/cm^2.
as §1, with “mouse monocytes,” for “mice,”, “were added, with” for “are added. For mouse monocytes,”, “μM β-mercaptoenthanol” for “mM beta-mercaptoenthanol”, “and” for “was also added, as were”, “ng/ml) to induce myofibroblast differentiation.” for “ng/ml).”, “culture. Monocytes were allowed to differentiate for 5 days, and counted based on morphology as previously described. […]” for “culture.”

[7] = test system: human monocyte-derived myofibroblasts; assay: Flow cytometry of human monocyte-derived myofibroblasts treated with antibodies or leukadherin; assay type: cell-based; details: antibody 500 ng/ml, leukadherin 2 ng/ml
Text: (§2) Myofibroblasts were de-differentiated by addition of antibodies (α-αMβ2, α-αM, α-α3) for 7 days after the 5 day differentiation was completed. Antibodies were free of azide, glycerol, and other preservatives.
(§3) Cultured myofibroblasts were lifted with ice cold trypsin-EDTA (Sigma), followed by mechanical agitation by a rubber policeman. Myofibroblasts were fixed and permeabilized using Cytofix/Cytoperm (BD biosciences, Franklin Lakes, NJ), and live-dead stained (live-dead aqua, ThermoFisher) per manufacturer's instructions. Antibodies used were α-collagen I (Biolegend, San Diego, CA), anti-α smooth muscle actin (αSMA) (R and D systems, Minneapolis, MN), α-ki-67 (BD biosciences), and α-talin2 (R and D systems). Compensation was performed via UltraComp beads (ThermoFisher) per the manufacturer's instructions.

[8] = test system: human monocyte-derived myofibroblasts; assay: Legendplex ELISA of conditioned media, human monocyte-derived myofibroblasts; assay type: cell-based; details: antibody 500 ng/ml, leukadherin 2 ng/ml
Protocol: Supernatant from cultured human and mouse myofibroblasts were thawed at 4 C, and centrifuged at 4 C and 10,000×G to pellet cell debris. Supernatant was taken and added to 96 well round bottom plates, in duplicate. Legendplex (Biolegend) beads against general inflammation markers were added, according to the manufacturer's instructions. Sample readouts were normalized to each individual donor control.

[9] = test system: mouse monocyte-derived myofibroblasts; assay: Mouse monocyte-derived myofibroblast de-differentiation assessed by morphology; assay type: cell-based; details: 1 week (FIG. 2A, 2B)
Text: Spleens were pushed through a 100 µm filter to disassociate the cells. Monocytes were purified from disassociated cells by use of a negative selection kit (Stemcell), following the manufacturer's instructions. The purified monocytes were then washed by PBS using five successive 300×G centrifugation steps, in order to remove EDTA from the resulting population. Monocytes were checked for purity using flow cytometry, and average purity was above 95%. The average yield was 1.5 million monocytes per spleen. Monocytes were cultured immediately following purification, at 250,000 monocytes/cm^2.
Human and mouse monocytes were cultured as previously described, using serum-free media (SFM). Briefly, SFM for human cells is composed of fibrolife (Lifeline, Frederick, MD), with 1× ITS-3 (Sigma, St. Louis, MO), 1× HEPES buffer (Sigma), 1× non-essential amino acids (Sigma), 1× sodium pyruvate (Sigma), and penicillin-streptomycin with glutamate (Sigma). For mouse monocytes, 2× concentrations of ITS-3, HEPES buffer, non-essential amino acids, and sodium pyruvate were added, with 50 μM β-mercaptoenthanol (ThermoFisher) and pro-fibrotic supplements M-CSF (25 ng/ml, Peprotech, Rocky Hill, NJ) and IL-13 (50 ng/ml) to induce myofibroblast differentiation. […] Monocytes were allowed to differentiate for 5 days, and counted based on morphology as previously described. […]

[10] = test system: mouse monocyte-derived myofibroblasts; assay: Flow cytometry of mouse monocyte-derived myofibroblasts treated with antibodies or leukadherin; assay type: cell-based; details: antibody 500 ng/ml
Text: as §2, §3

[11] = biological target: Integrin-αM (human, on monocyte-derived myofibroblasts) (human) (UniProt P11215); assay: cell-based or functional assay
[12] = biological target: Integrin αMβ2 (human, MAC1, on monocyte-derived myofibroblasts) (human) (UniProt P11215); assay: cell-based or functional assay

Question: Which “αSMA and collagen I double-positive cells / myofibroblast differentiation” value [1] does the source give for “talin2 siRNA #2: individual Accell siRNA against mouse talin2; target CUGGAAAAUUCAGUGAUGA (SEQ ID NO:26), antisense UCAUCACUGAAUUUUCCAG (SEQ ID NO:37) (Accell modifications, chemistry not fully specified)” here?
Answer: The value was “inhibited myofibroblast differentiation by itself”.

Question: And the “αSMA and collagen I double-positive myofibroblasts” value ([2]; mouse cell cultures (FIG. 28C))?
Answer: The value was “most reduced both αSMA and collagen I double-positive”.

Question: What about the talin2 positive myofibroblasts ([2]; mouse cell cultures (FIG. 28D)) of the same compound?
Answer: Its talin2 positive myofibroblasts is “most reduced both αSMA and collagen I double-positive (FIG. 28C) and talin2 positive (FIG. 28D) myofibroblasts”.

Question: And the mouse weight ([3]; 200 nM by lung instillation at 7, 9, 11, 14, 16, 18 days post bleomycin, to day 21 (FIG. 29A))?
Answer: The mouse weight was “showed a lesser transient weight decrease than did the controls”.

Question: What about the “amount of collagen in the lungs (hydroxyproline assay)” value ([3]; 200 nM by lung instillation x6, day 21 (FIG. 29B-C)) of the same compound?
Answer: Its value is “reduced the amount of collagen in the lungs”.

Question: And the “blinded Ashcroft scoring of Masson's trichrome-stained lung sections” value ([3]; 200 nM by lung instillation x6, day 21 (FIG. 29D))?
Answer: The value was “improved the histological readout of lung fibrosis”.

Question: What about the “lung fibrosis in Masson's trichrome images” value ([3]; vs non-targeting siRNA and untreated fibrotic lungs (FIG. 29E-L)) of the same compound?
Answer: Its value is “rescued lung fibrosis compared to non-targeting siRNA and untreated fibrotic lungs”.

Question: With Cc1ccc(=O)n(-c2ccccc2)c1 [pirfenidone] as the compound, how does the “effect on progression of fibrosis” value [4] read?
Answer: The value was “slow, but do not reverse, the progression of fibrosis”.

Question: Which adhesion-dependent angiogenesis [5] does the source give for O=C(COc1ccc2c(c1)OCO2)NC(=O)NCCc1c[nH]c2ccccc12 [KCH-1521] here?
Answer: The adhesion-dependent angiogenesis was “decreases adhesion-dependent angiogenesis”.

Question: And the “distinction between talin1 and talin2” value [5]?
Answer: Its value is “does not distinguish between talin1 and talin2”.

Question: Which “effect on progression of fibrosis” value [4] does the source give for PRM-151: recombinant pentraxin-2 here?
Answer: The value was “shown even a modest ability to reverse fibrosis in some patients”.

Question: Which “myofibroblast de-differentiation or differentiation as determined by morphology” value [6] does the source give for leukadherin here?
Answer: Its value is “promoted myofibroblasts differentiation”.

Question: What about the “αSMA+ collagen I+ double positive cells” value ([7]; flow cytometry (FIG. 1C)) of the same compound?
Answer: Its value is “increased the amount of αSMA^+ collagen I^+ double positive cells”.

Question: And the talin2 expression ([7]; flow cytometry (FIG. 1D))?
Answer: Its talin2 expression is “nor integrin interaction promoters (Gi14, leukadherin) significantly altered talin2 expression”.

Question: What about the “secreted MCP1” value ([8]; conditioned media after 1 week (FIG. 9A)) of the same compound?
Answer: The value was “promoted the secretion of MCP1”.

Question: What about the “secreted IL-6” value ([8]; conditioned media after 1 week (FIG. 9C)) of the same compound?
Answer: The value was “promoted the secretion of MCP1 (FIG. 9A) and IL-6”.

Question: What about the “myofibroblast de-differentiation or differentiation by morphology” value [9] of the same compound?
Answer: The value was “increased monocyte-derived myofibroblast differentiation”.

Question: What about the “αSMA+ and collagen I+ double positive myofibroblasts” value ([10]; leukadherin 2 ng/ml (FIG. 2C)) of the same compound?
Answer: The value was “increased both the amount of α αSMA^+ and collagen I^+ double positive monocyte-myofibroblasts”.

Question: And the “talin2+ cells / talin2 concentration” value ([10]; leukadherin 2 ng/ml (FIG. 2D))?
Answer: Its value is “increasing talin2 concentration in these cells”.

Question: For α-αM (clone ICRF44) (antibody), which IC50 for human monocyte-myofibroblast differentiation (de-differentiation by morphology) [11] is on record?
Answer: Its IC50 for human monocyte-myofibroblast differentiation (de-differentiation by morphology) is 59.7 ng/ml.

Question: For α-αMβ2 (MAC1, clone CBRM1/5) (antibody), which IC50 for human monocyte-myofibroblast differentiation (de-differentiation by morphology) [12] is on record?
Answer: Its IC50 for human monocyte-myofibroblast differentiation (de-differentiation by morphology) is 63.3 ng/ml.

Question: For COC(=O)c1ccc2c(c1)NC(=O)/C2=C(\Nc1ccc(N(C)C(=O)CN2CCN(C)CC2)cc1)c1ccccc1 [nintedanib], which “effect on progression of fibrosis” value [4] is on record?
Answer: The value was “slow, but do not reverse, the progression of fibrosis”.
